Earlier results in patent publication US20060270611A1, “PEDIATRIC FORMULATION OF TOPIRAMATE” (priority 2005, published 2006).

Conditions: clinical trials of human epilepsy; adjunctive therapy or monotherapy

SMILES: CC1(C)O[C@H]2[C@H]3OC(C)(C)O[C@]3(COS(N)(=O)=O)OC[C@H]2O1 [Topiramate, 2,3:4,5-bis-O-(1-methylethylidene) β-D-fructopyranose sulfamate]
- efficacy in treating simple and complex partial seizures and secondarily generalized seizures: effective as adjunctive therapy or as monotherapy
